Measurements published in patent US20220107317A1, “COMPOSITIONS AND METHODS FOR DIAGNOSING AND TREATING CORONAVIRUS DISEASE 2019” (priority 2020, published 2022).

Experiments:
[1] = tested on: nCoV-S Luc pseudovirus of SARS-CoV-2; type: cell-based
SARS-CoV-2 spike protein = SARS-CoV-2 spike protein (Severe acute respiratory syndrome coronavirus 2, UniProt P0DTC2)
[2] = molecular target: SARS-CoV-2 spike protein (SARS-CoV-2), P0DTC2

Q: For “DLSGFVRPDPVIISSPLSTFFSDAGYKSLLKITMTQSTVPLNLIRVHLMVAVEG HLFQKSFQASPNLAYTFIWDKTDAYGQRVYGLSDAVVSVGFEYETCPSLILW EKRTALLQGFELD [T2 peptide]”, which “inhibition of infection of OECM1 cells” value [1] is on record?
A: The value was “significantly inhibited”.

Q: And the biosensing sensitivity (SARS-CoV-2 spike protein)?
A: Its biosensing sensitivity is 0.1 ng in 1 μL per test.

Q: And the “concentration of SARS-CoV-2 spike protein at which binding activity is shown” value (SARS-CoV-2 spike protein)?
A: Its value is 0.1 pM.

B1: T2 peptide (peptide)
peptide: DLSGFVRPDPVIISSPLSTFFSDAGYKSLLKITMTQSTVPLNLIRVHLMVAVEGHLFQKSFQASPNLAYTFIWDKTDAYGQRVYGLSDAVVSVGFEYETCPSLILWEKRTALLQGFELD
modifications: not checked
Q: With B1 as the molecule, how does the biosensing sensitivity (ng in 1 µL per test) [2] read?
A: Its biosensing sensitivity (ng in 1 µL per test) is 0.1.

Q: And the lowest spike protein concentration showing binding activity [2]?
A: Its lowest spike protein concentration showing binding activity is 0.1 pM.
